Laboratory results as given in patent US11104670B2, “4-pyrimidin-5-ylmethyl-morpholine derivatives and the use thereof as medicament” (Boehringer Ingelheim International GmbH, priority 2018, dated 2021).

What was measured:
MDR1 (P-gp) = MDR1 (P-gp) (Homo sapiens (Human), UniProt P08183); experiment: MDCK assay P-gp (MDCK-MDR1 monolayer permeability); assay type: in vitro ADME; conditions: for Papp A→B: MDCK-MDR1, apical-to-basal, pH 7.4; for efflux ratio: MDCK-MDR1, pH 7.4, Papp (b-a) divided by Papp (a-b), read-out: efflux ratio PEBA/PEAB
Procedure: The MDCK assays provide information on the potential of a compound to pass the blood brain barrier. Permeability measurements across polarized, confluent MDCK-MDR1 cell monolayers grown on permeable filter supports are used as an in vitro absorption model: apparent permeability coefficients (PE) of the compounds across the MDCK-MDR1 cell monolayers are measured (pH 7.4, 37° C.) in apical-to-basal (AB) and basal-to-apical (BA) transport direction. The AB permeability (PEAB) represents drug absorption from the blood into the brain and the BA permeability (PEBA) drug efflux from the brain back into the blood via both, passive permeability as well as active transport mechanisms mediated by efflux and uptake transporters that are expressed on the MDCK-MDR1 cells, predominantly by the overexpressed human MDR1. Identical or similar permeabilities in both transport directions indicate passive permeation (PEBA/PEAB≤1), vectorial permeability points to additional active transport mechanisms. Higher PEBA than PEAB (PEBA/PEAB>5) indicates the involvement of active efflux mediated by MDR1, which might compromise the goal to achieve sufficient brain exposure. Therefore, this assay provides valuable support for selection of compounds applicable for further in vivo testing. High permeability not limited by efflux at the blood brain barrier is a favourable characteristic for compounds that are to be used for drugs acting primarily in the CNS.
Apparent permeability coefficients (Papp) of the compounds across the MDCK-MDR1 monolayers (MDCKII cells transfected with human MDR1 cDNA expression plasmid) are measured in apical-to-basal (AB) and basal-to-apical (BA) direction.
MDCK-MDR1 cells (6×10^5 cells/cm^2) are seeded on filter inserts (Corning, Transwell, polycarbonate, 0.4 μm pore size) and cultured for 9 to 10 days. Compounds dissolved in DMSO stock solution (1-20 mM) are diluted with HTP-4 aqueous buffer (128.13 mM NaCl, 5.36 mM KCl, 1 mM MgSO4, 1.8 mM CaCl2, 4.17 mM NaHCO3, 1.19 mM Na2HPO4, 0.41 mM NaH2PO4, 15 mM HEPES, 20 mM glucose, pH 7.4) supplemented with 0.25% BSA to prepare the transport solutions (final concentration: 1 or 10 μM, final DMSO <=0.5%). The transport solution is applied to the apical or basolateral donor side for measuring A-B or B-A permeability, respectively. The receiver side contains HTP-4 buffer supplemented with 0.25% BSA. Samples are collected at the start and end of experiment from the donor and at various time intervals for up to 2 hours also from the receiver side for concentration measurement by HPLC-MS/MS (RapidFire High-throughput MS System (Agilent) coupled to QTrap 6500 (AB Sciex) or TSQ Vantage (Thermo Scientific)). Sampled receiver volumes are replaced with fresh receiver solution. Efflux ratio is calculated dividing the Papp (b-a) values by the Papp (a-b) values.

Nav1.6 channel = Nav1.6 channel (Homo sapiens (Human), UniProt Q9UQD0); experiment: Nav1.6 inhibition, IonWorks Quattro electrophysiology; assay type: cell-based; conditions: for inhibition at 1 µM / inhibition at 5 µM: normalized to vehicle (0%) and maximal inhibition control (100%)
Procedure: Ion Works Quattro electrophysiological platform
The compounds were prepared in DMSO at 300× the final assay concentrations of 1 and 5 μM.
The 300× DMSO stock solutions were transferred into assay plates where 2 μl per well of each 300× stock solution were placed. All assay plates were stored at −80° C. until the day of assay.
On the day of the assay, the appropriate assay plate was thawed at room temperature, centrifuged, and 198 μl of external recording solution was added and mixed thoroughly. This provided a 1:100 dilution. A further 1:3 dilution occurred upon addition to the cells in the IonWorks Quattro electrophysiological platform, giving a 1:300 dilution in total.
On each assay plate, at least 8 wells were reserved for vehicle control (0.3% DMSO) and at least 8 wells for each positive control specific to the cell line tested. The positive controls were tested at a maximal blocking and an approximate IC50 concentration. As positive control Lidocaine at concentrations of 30 and 1000 μM was used.
Amphotericin B was used to obtain electrical access to the cell interior at a final concentration of 200 μg/ml in internal recording solution.
State-dependent inhibition: Sodium channels when held at depolarized potential or long test pulse, the channels open and inactivate and then stay inactivated until the membrane potential is stepped back to hyperpolarized potentials, when the inactivated channels recover from inactivation into closed state.
Cells were held at −120 mV. In order to completely inactivate the sodium channels (pulse 1), the cells were pulsed to +0 mV for 2500 ms and stepped back to −120 mV for 10 ms (to completely recover from inactivation, however channels that had drugs bound to them will not recover from inactivation) before stepping to +0 mV for 20 ms (pulse 2).
Both the positive and vehicle control data associated with each cell line assayed are shown below as an example. The mean is shown for each positive and negative control as solid symbol with the total number of individual well replicates given next to the solid symbol. In addition, the individual data of each well are shown on the graph as open symbols so that the variation about the mean value can be readily assessed.
In FIG. 2, a Post/Pre value of 1.0 corresponds to 0% inhibition, a Post/Pre value of 0.0 corresponds to 100% inhibition.
Tables 3 and 4 show the normalized percentage inhibition of Nav1.6 channel. […] (see also the figure Assay Control Results above).

Nav1.6 channel, sequence (Q9UQD0 whole entry): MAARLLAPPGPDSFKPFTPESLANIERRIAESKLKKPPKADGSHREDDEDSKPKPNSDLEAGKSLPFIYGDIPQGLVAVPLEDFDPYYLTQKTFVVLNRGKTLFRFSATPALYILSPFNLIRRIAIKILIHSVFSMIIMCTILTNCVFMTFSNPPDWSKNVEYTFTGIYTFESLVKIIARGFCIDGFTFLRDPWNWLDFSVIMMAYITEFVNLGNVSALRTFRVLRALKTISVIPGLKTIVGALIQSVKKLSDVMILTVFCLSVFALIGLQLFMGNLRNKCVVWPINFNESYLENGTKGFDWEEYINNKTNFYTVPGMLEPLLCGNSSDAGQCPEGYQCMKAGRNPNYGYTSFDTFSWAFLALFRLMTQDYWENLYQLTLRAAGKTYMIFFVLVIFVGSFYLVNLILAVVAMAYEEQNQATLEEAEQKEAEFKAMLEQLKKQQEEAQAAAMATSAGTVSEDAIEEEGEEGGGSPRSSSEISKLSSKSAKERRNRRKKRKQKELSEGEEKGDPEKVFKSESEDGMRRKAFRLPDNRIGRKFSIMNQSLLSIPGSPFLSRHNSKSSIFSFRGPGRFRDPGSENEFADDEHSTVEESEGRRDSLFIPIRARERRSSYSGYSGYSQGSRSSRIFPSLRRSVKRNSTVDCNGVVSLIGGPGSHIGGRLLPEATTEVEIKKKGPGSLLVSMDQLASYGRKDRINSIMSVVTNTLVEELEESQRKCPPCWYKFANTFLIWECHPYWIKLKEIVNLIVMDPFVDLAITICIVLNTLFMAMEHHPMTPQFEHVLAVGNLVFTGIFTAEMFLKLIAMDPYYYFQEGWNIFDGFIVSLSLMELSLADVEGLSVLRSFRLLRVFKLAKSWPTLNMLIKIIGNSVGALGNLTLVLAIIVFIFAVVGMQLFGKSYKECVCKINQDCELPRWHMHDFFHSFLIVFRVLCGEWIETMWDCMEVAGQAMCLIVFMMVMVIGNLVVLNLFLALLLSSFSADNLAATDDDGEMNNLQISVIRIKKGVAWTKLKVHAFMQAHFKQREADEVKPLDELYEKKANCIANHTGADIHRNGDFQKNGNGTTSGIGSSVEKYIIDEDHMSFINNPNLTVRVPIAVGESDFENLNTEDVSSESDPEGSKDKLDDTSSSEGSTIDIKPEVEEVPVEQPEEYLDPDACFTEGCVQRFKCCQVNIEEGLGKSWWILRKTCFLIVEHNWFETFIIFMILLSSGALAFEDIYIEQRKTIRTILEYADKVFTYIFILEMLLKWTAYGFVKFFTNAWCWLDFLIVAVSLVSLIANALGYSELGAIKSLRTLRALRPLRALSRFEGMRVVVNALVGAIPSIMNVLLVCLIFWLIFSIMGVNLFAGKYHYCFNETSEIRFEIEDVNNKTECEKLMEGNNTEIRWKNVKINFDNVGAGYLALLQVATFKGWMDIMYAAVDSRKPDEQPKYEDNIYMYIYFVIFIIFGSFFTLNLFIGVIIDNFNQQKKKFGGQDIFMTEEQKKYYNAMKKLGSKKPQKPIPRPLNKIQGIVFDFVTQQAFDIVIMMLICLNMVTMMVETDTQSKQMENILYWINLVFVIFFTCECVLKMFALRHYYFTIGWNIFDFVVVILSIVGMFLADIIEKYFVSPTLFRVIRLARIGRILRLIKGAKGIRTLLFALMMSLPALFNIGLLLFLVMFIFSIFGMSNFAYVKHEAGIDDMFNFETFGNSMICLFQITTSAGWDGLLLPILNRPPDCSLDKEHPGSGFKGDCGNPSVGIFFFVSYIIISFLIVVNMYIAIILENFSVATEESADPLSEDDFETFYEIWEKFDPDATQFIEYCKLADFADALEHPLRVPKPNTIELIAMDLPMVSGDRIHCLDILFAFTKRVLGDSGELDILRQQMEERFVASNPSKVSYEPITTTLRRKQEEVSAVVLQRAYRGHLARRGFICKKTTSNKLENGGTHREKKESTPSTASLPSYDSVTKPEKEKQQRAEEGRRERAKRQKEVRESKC

Papp A→B (MDR1 (P-gp))	efflux ratio (MDR1 (P-gp))	inhibition at 1 µM (Nav1.6 channel)	inhibition at 5 µM (Nav1.6 channel)	inhibition of the Nav 1.6 channel (in words) (Nav1.6 channel; at 5 μM)	Compound
95 ×10⁻⁶ cm/s	0.6	12.8%	5.7%		CNC(=O)[C@@H]1CN(Cc2cnc(Oc3ccccc3Cl)nc2)CCO1 [Example 26]
56 ×10⁻⁶ cm/s	1	1.3%	3.6%		CNC(=O)[C@@H]1CN(Cc2cnc(Oc3ccc(F)cc3C)nc2)CCO1 [Example 21]
80 ×10⁻⁶ cm/s	0.7	-8.9%	-10.1%		CNC(=O)[C@@H]1CN(Cc2cnc(Oc3ccc(C)cc3F)nc2)CCO1 [Example 20]
54 ×10⁻⁶ cm/s	0.7	-3.1%	4.3%		CNC(=O)[C@@H]1CN(Cc2cnc(Oc3ccccc3F)nc2)CCO1 [Example 27]
57 ×10⁻⁶ cm/s	0.7	3.8%	-10.4%		CNC(=O)[C@@H]1CN(Cc2cnc(Oc3ccc(C)cc3C)nc2)CCO1 [Example 22]
56 ×10⁻⁶ cm/s	0.8	5.8%	-3.7%		CNC(=O)[C@@H]1CN(Cc2cnc(Oc3ccc(Cl)cc3F)nc2)CCO1 [Example 24]
83 ×10⁻⁶ cm/s	0.5	-6.2%	-14.6%		CNC(=O)[C@@H]1CN(Cc2cnc(Oc3ccc(C)cc3)nc2)CCO1 [Example 28]
82 ×10⁻⁶ cm/s	0.5	-7.7%	-13.5%		CNC(=O)[C@@H]1CN(Cc2cnc(Oc3ccc(F)cc3)nc2)CCO1 [Example 32]
88 ×10⁻⁶ cm/s	0.5	-11.8%	-18.8%	not showing any significant inhibition	CNC(=O)[C@@H]1CN(Cc2cnc(Oc3ccc(Cl)cc3)nc2)CCO1 [Example 25]
65 ×10⁻⁶ cm/s	0.9	0.1%	2.9%		CNC(=O)[C@@H]1CN(Cc2cnc(Oc3ccc(F)cc3F)nc2)CCO1 [Example 23]
